# Assay results published in US4110327A, “2,3 Diketo-piperazinocarbonylamino alkanoic acids and derivatives” (Toyama Chemical Co., Ltd., priority 1974, dated 1978).
# Tests used:
# Format in all cases: cell-based
# Escherichia coli NIHJ = assay: MIC against standard strain, plate method; conditions: unit assumed
# Protocol: (§1) The minimum inhibitory concentrations (MIC) was determined by the plate method disclosed in "Chemotherapy" (Japan), Vol. 16, (1968), pages 98 - 99. The culture medium used was a Heart infusion agar (pH 7.4). The number of the cells per plate used in the inoculum as 10^4 (10^6 cells/ml).
# Klebsiella pneumoniae [1] = assay: MIC against standard strain, plate method; conditions: unit assumed
# Protocol: as §1
# Proteus vulgaris 3027 = assay: MIC against standard strain, plate method; conditions: Proteus vulgaris 3027, standard strain; unit assumed
# Protocol: as §1
# [2] = test system: Pseudomonas aeruginosa I.F.O.; assay: MIC against standard strain, plate method; conditions: unit assumed
# Protocol: as §1
# [3] = test system: Staphylococcus aureus 209p; assay: MIC against standard strain, plate method; conditions: unit assumed
# Protocol: as §1
# Pseudomonas aeruginosa = assay: MIC against clinical isolates; conditions: unit assumed
# Klebsiella pneumoniae [4] = assay: MIC against clinical isolates; conditions: unit assumed
SMILES,MIC (Escherichia coli NIHJ) [µg/mL],MIC (Klebsiella pneumoniae [1]) [µg/mL],MIC (Proteus vulgaris 3027) [µg/mL],MIC [2] [µg/mL],MIC [3] [µg/mL],other results
CC1(C)S[C@@H]2[C@H](NC(=O)[C@H](NC(=O)N3CCN(CCO)C(=O)C3)c3ccccc3)C(=O)N2[C@H]1C(=O)O [compound 24],< 1.57,50,25,50,3.13,
CC1(C)S[C@@H]2[C@H](NC(=O)[C@H](NC(=O)N3CCN(C(=O)c4ccccc4)CC3=O)c3ccccc3)C(=O)N2[C@H]1C(=O)O [compound 7],< 1.57,12.5,6.25,200,< 1.57,
CN1CCN(C(=O)N[C@@H](C(=O)N[C@@H]2C(=O)N3[C@@H]2SC(C)(C)[C@@H]3C(=O)O)c2ccccc2)CC1=O [compound 17],< 1.57,50,6.25,12.5,< 1.57,
CC1(C)S[C@@H]2[C@H](NC(=O)[C@H](NC(=O)N3CCN(CCCl)C(=O)C3=O)c3ccccc3)C(=O)N2[C@H]1C(=O)O [compound 44],< 1.57,< 1.57,< 1.57,6.25,< 1.57,
CC1(C)S[C@@H]2[C@H](NC(=O)[C@H](NC(=O)N3CCN(Cc4ccccc4)C(=O)C3)c3ccccc3)C(=O)N2[C@H]1C(=O)O [compound 23],< 1.57,6.25,3.13,25,< 1.57,
"CCCCCCCCN1CCN(C(=O)NC(C(=O)NC2C(=O)N3C2SC(C)(C)C3C(=O)OCCN2CCCCC2)c2ccccc2)C(=O)C1=O (single isomer, unassigned) [compound 54]",0.4,0.79,0.79,12.5,0.79,
"CN1CCN(C(=O)N[C@@H](C(=O)N[C@@H]2C(=O)N3[C@@H]2SC(C)(C)[C@@H]3C(=O)OC2OC(=O)c3ccccc32)c2ccccc2)C(=O)C1=O (single isomer, unassigned) [compound 49]",0.79,12.5,1.57,12.5,< 0.4,
CC1(C)SC2C(NC(=O)C(NC(=O)N3CCNC(=O)C3=O)c3ccccc3)C(=O)N2C1C(=O)O (stereo not drawn) [compound 59],< 1.57,200,3.13,25,< 1.57,
CCCCCCN1CCN(C(=O)N[C@@H](C(=O)N[C@@H]2C(=O)N3[C@@H]2SC(C)(C)[C@@H]3C(=O)O)c2ccccc2)CC1=O [compound 29],< 1.57,3.13,3.13,12.5,3.13,
CC(C)N1CCN(C(=O)N[C@@H](C(=O)N[C@@H]2C(=O)N3[C@@H]2SC(C)(C)[C@@H]3C(=O)O)c2ccccc2)CC1=O [compound 20],< 1.57,25,3.13,12.5,3.13,
CCCCN1CCN(C(=O)N[C@@H](C(=O)N[C@@H]2C(=O)N3[C@@H]2SC(C)(C)[C@@H]3C(=O)O)c2ccccc2)CC1=O [compound 18],< 1.57,25,3.13,12.5,< 1.57,
C=C(C)CN1CCN(C(=O)N[C@@H](C(=O)N[C@@H]2C(=O)N3[C@@H]2SC(C)(C)[C@@H]3C(=O)O)c2ccccc2)CC1=O [compound 27],< 1.57,25,3.13,25,< 1.57,
C/C=C/CN1CCN(C(=O)N[C@@H](C(=O)N[C@@H]2C(=O)N3[C@@H]2SC(C)(C)[C@@H]3C(=O)O)c2ccccc2)CC1=O [compound 28],< 1.57,25,3.13,25,< 1.57,
"CN1CCN(C(=O)N[C@@H](C(=O)N[C@@H]2C(=O)N3[C@@H]2SC(C)(C)[C@@H]3C(=O)OCOC(=O)C(C)(C)C)c2ccccc2)C(=O)C1=O (single isomer, unassigned) [compound 52]",0.79,25,1.57,25,0.79,
"CCN1CCN(C(=O)NC(C(=O)NC2C(=O)N3C(C(=O)O)=C(CSc4cccc[n+]4[O-])CSC23)c2ccccc2)C(=O)C1=O (single isomer, unassigned) [compound 70]",1.57,1.56,< 0.79,100,< 0.79,
CCN1CCN(C(=S)NC(C(=O)NC2C(=O)N3C(C(=O)O)=C(COC(C)=O)CSC23)c2ccccc2)C(=O)C1=O (stereo not drawn) [compound 67],< 0.79,3.13,12.5,100,6.25,
CC(C)CCN1CCN(C(=O)N[C@@H](C(=O)N[C@@H]2C(=O)N3[C@@H]2SC(C)(C)[C@@H]3C(=O)O)c2ccccc2)CC1=O [compound 21],1.57,25,3.13,25,< 0.79,
CN1CCN(C(=O)NC(C(=O)NC2C(=O)N3C2SC(C)(C)C3C(=O)O)C2=CCC=CC2)C(=O)C1=O (stereo not drawn) [compound 57],< 0.79,12.5,3.13,12.5,< 0.79,
Cc1ccc(C(=O)N2CCN(C(=O)N[C@@H](C(=O)N[C@@H]3C(=O)N4[C@@H]3SC(C)(C)[C@@H]4C(=O)O)c3ccccc3)C(=O)C2)cc1 [compound 9],3.13,3.13,3.13,100,< 1.57,
CCOC(=O)N1CCN(C(=O)N[C@@H](C(=O)N[C@@H]2C(=O)N3[C@@H]2SC(C)(C)[C@@H]3C(=O)O)c2ccccc2)C(=O)C1 [compound 12],3.13,6.25,12.5,50,< 1.57,
CCN1CCN(C(=O)N[C@@H](C(=O)N[C@@H]2C(=O)N3[C@@H]2SC(C)(C)[C@@H]3C(=O)O)c2ccccc2)CC1=O [compound 19],< 1.57,50,3.13,12.5,< 1.57,MIC (Pseudomonas aeruginosa; clinical isolate GN 82): 12.5 µg/mL; MIC (Pseudomonas aeruginosa; clinical isolate GN 163): 12.5 µg/mL; MIC (Pseudomonas aeruginosa; clinical isolate GN 221): 12.5 µg/mL; MIC (Pseudomonas aeruginosa; clinical isolate GN 376): 12.5 µg/mL; MIC (Pseudomonas aeruginosa; clinical isolate GN 383): 12.5 µg/mL; MIC (Pseudomonas aeruginosa; clinical isolate GN 1035): 100 µg/mL; MIC (Pseudomonas aeruginosa; clinical isolate GN 1091): 12.5 µg/mL; MIC (Pseudomonas aeruginosa; clinical isolate GN 2565): 50 µg/mL; MIC (Pseudomonas aeruginosa; clinical isolate GN 2987): 12.5 µg/mL; MIC (Pseudomonas aeruginosa; clinical isolate GN (number not given; Table 5-3)): 25 µg/mL; MIC (Pseudomonas aeruginosa; clinical isolate S-1): 50 µg/mL; MIC (Pseudomonas aeruginosa; clinical isolate S-2): 50 µg/mL; MIC (Pseudomonas aeruginosa; clinical isolate S-3): 50 µg/mL; MIC (Pseudomonas aeruginosa; clinical isolate S-4): 50 µg/mL; MIC (Klebsiella pneumoniae [4]; clinical isolate GN 917): 50 µg/mL; MIC (Klebsiella pneumoniae [4]; clinical isolate GN 3850): 100 µg/mL; MIC (Klebsiella pneumoniae [4]; clinical isolate GN 4081): > 200 µg/mL; MIC (Klebsiella pneumoniae [4]; clinical isolate GN 4117): > 200 µg/mL
CCN1CC(C)N(C(=O)NC(C(=O)NC2C(=O)N3C(C(=O)O)=C(CSc4nnnn4C)CSC23)c2ccccc2)C(=O)C1=O (stereo not drawn) [compound 66],< 0.79,0.79,< 1.57,25,< 0.79,
"CCCCCCCCN1CCN(C(=O)N[C@@H](C(=O)N[C@@H]2C(=O)N3[C@@H]2SC(C)(C)[C@@H]3C(=O)OCOC)c2ccccc2)C(=O)C1=O (single isomer, unassigned) [compound 51]",< 0.4,< 0.4,< 0.4,12.5,< 0.4,
CCCCCC(=O)N1CCN(C(=O)N[C@@H](C(=O)N[C@@H]2C(=O)N3[C@@H]2SC(C)(C)[C@@H]3C(=O)O)c2ccccc2)C(=O)C1 [compound 6],3.13,6.25,6.25,50,3.13,
